The subject of data set [1] is Triticum aestivum. Briefly: Phytotoxicity against Triticum aestivum (wheat) under greenhouse conditions at 40 g/a at 1.5-leaf stage measured after 3 weeks by pot test. The following applies: in vivo, 504 h. The class given is organism-based.
In data set [2] the test system is Avena fatua. Briefly: Post-emergence herbicidal activity against Avena fatua under greenhouse conditions at 40 g/a at 1.5-leaf stage measured after 3 weeks by pot test. The class given is functional, organism-based.
In data set [3] the test system is Triticum aestivum. Briefly: Phytotoxicity against Triticum aestivum (wheat) under greenhouse conditions at 1.3 g/a at 1.5-leaf stage measured after 3 weeks by pot test. The class given is organism-based. The following applies: in vivo, 504 h.
For data set [4], the system named is Triticum aestivum. Nature of the data set: Phytotoxicity against Triticum aestivum (wheat) under greenhouse conditions at 10 g/a at 1.5-leaf stage measured after 3 weeks by pot test. The class given is organism-based. The following applies: in vivo, 504 h.
Data set [5] concerns Avena fatua. Briefly: Post-emergence herbicidal activity against Avena fatua under greenhouse conditions at 5 g/a at 1.5-leaf stage measured after 3 weeks by pot test. The format is functional, organism-based.
In data set [6] the test system is Avena fatua. Nature of the data set: Post-emergence herbicidal activity against Avena fatua under greenhouse conditions at 10 g/a at 1.5-leaf stage measured after 3 weeks by pot test. The class given is functional, organism-based.
Data set [7] concerns Triticum aestivum. Nature of the data set: Phytotoxicity against Triticum aestivum (wheat) under greenhouse conditions at 5 g/a at 1.5-leaf stage measured after 3 weeks by pot test. The class given is organism-based. The following applies: in vivo, 504 h.
In data set [8] the test system is Triticum aestivum. Nature of the data set: Phytotoxicity against Triticum aestivum (wheat) under greenhouse conditions at 2.5 g/a at 1.5-leaf stage measured after 3 weeks by pot test. The following applies: in vivo, 504 h. The format is organism-based.
Data set [9] concerns Avena fatua. Nature of the data set: Post-emergence herbicidal activity against Avena fatua under greenhouse conditions at 1.3 g/a at 1.5-leaf stage measured after 3 weeks by pot test. The format is functional, organism-based.
Data set [10] has as its system Avena fatua. Briefly: Post-emergence herbicidal activity against Avena fatua under greenhouse conditions at 2.5 g/a at 1.5-leaf stage measured after 3 weeks by pot test. The format is functional, organism-based.
For data set [11], the system named is Triticum aestivum. Nature of the data set: Phytotoxicity against Triticum aestivum (wheat) under greenhouse conditions at 0.3 g/a at 1.5-leaf stage measured after 3 weeks by pot test. The class given is organism-based. The following applies: in vivo, 504 h.
Data set [12] has as its system Avena fatua. Nature of the data set: Post-emergence herbicidal activity against Avena fatua under greenhouse conditions at 0.6 g/a at 1.5-leaf stage measured after 3 weeks by pot test. The format is functional, organism-based.
In data set [13] the test system is Avena fatua. Briefly: Post-emergence herbicidal activity against Avena fatua under greenhouse conditions at 0.3 g/a at 1.5-leaf stage measured after 3 weeks by pot test. The class given is functional, organism-based.
For data set [14], the system named is Triticum aestivum. Nature of the data set: Phytotoxicity against Triticum aestivum (wheat) under greenhouse conditions at 0.6 g/a at 1.5-leaf stage measured after 3 weeks by pot test. The format is organism-based. The following applies: in vivo, 504 h.
The subject of data set [15] is Avena fatua. Briefly: Post-emergence herbicidal activity against Avena fatua under greenhouse conditions compound treated at 1.5-leaf stage measured after 3 weeks by pot test relative to diclofop-methyl. The format is functional.

Active and inactive are the calls of the source. The calls are words filed in the database; no cut-off is given here.

As for `CC(Oc1ccc(Oc2ncc(Cl)cc2Cl)cc1)C(=O)N(C)C` (stereo not given), the Activity entry in data set [1] was “Non-toxic”. Also, in data set [2], the outcome was inactive.
For `CC(Oc1ccc(Oc2ccc(Cl)cc2Cl)cc1)C(=O)NOCC(=O)O` (stereo not given), the Activity entry in [1] is recorded as “Non-toxic”. For the same compound, in [2], the outcome was inactive.
Turning to `CC(Oc1ccc(Oc2ccc(Cl)cc2Cl)cc1)C(=O)O` (stereo not given) [DICLOFOP], the Activity entry in data set [3], in data set [4], in data set [7] and in data set [8] was “Non-toxic” in each case. In addition, the result in data set [5], in data set [6], in [9] and in [10] was Active.
Turning to `CCNC(=O)CNC(=O)C(C)Oc1ccc(Oc2ncc(Cl)cc2Cl)cc1` (stereo not given), the Activity entry in data set [3], in data set [11], in data set [14], in data set [7] and in [8] was “Non-toxic” throughout. Also, the result in [12], in [5], in data set [13], in data set [9] and in data set [10] was Active. Further, in data set [15], the Ratio is given as 2.
Turning to `COC(=O)C(C)Oc1ccc(Oc2ccc(Cl)cc2Cl)cc1` (stereo not given) [DICLOFOP-METHYL], the Activity entry in data set [3], in [4], in [14], in [7] and in [8] was “Non-toxic” in each case. In addition, the result in data set [12] and in data set [9] was inactive. The outcome in [5], in [6] and in data set [10] was Active.
As for `CONC(=O)C(C)Oc1ccc(Oc2ncc(Cl)cc2Cl)cc1` (stereo not given), the Activity entry is “Toxic” in data set [3], “Non-toxic” in data set [11], “Toxic” in data set [14] and “Toxic” in [8]. For the same compound, the outcome in data set [12], in [13], in data set [9] and in [10] was Active.
Regarding `CC(Oc1ccc(Oc2ccc(C(F)(F)F)cn2)cc1)C(=O)NOCC(=O)O` (stereo not given), the Activity entry in data set [3], in [11], in [14] and in data set [8] was “Toxic” in each case. The result in [12], in data set [9] and in [10] was Active. Besides, the outcome in data set [13] was inactive.
Take `CCCNC(=O)CNC(=O)C(C)Oc1ccc(Oc2ncc(Cl)cc2Cl)cc1` (stereo not given): the Activity entry in data set [3] is “Non-toxic”; in data set [11] it was “Non-toxic”; in data set [14], “Non-toxic”; in [8], “Toxic”. Moreover, the outcome in [12], in data set [9] and in data set [10] was Active. In addition, in [13], the outcome was inactive.
For the compound `CC(Oc1ccc(Oc2ccc(C(F)(F)F)cn2)cc1)C(=O)O` (stereo not given) [FLUAZIFOP], the Activity result in data set [3], in data set [11], in data set [14] and in [8] was “Toxic” in each case. The result in [12], in data set [13], in data set [9] and in data set [10] was Active.
